According to patent publication US20140350273A1, “PEDIATRIC USES OF CABAZITAXEL” (AVENTIS PHARMA S.A., priority 2012, published 2014):
Where two headings read alike, the source gives them in different places.

Test system: human Ewing's sarcoma SK-ES-1
Format: in vivo
Set-up: Tumor volume changes from baseline: Median (nMad): unit not given here
Experimental: This efficacy may be quantified, for example, as changes in tumor volume for each treated (T) and control (C) group, which are calculated for each animal and each day by subtracting the tumor volume on the day of first treatment (staging day) from the tumor volume on the specified observation day. This allows calculating the tumor growth inhibition: ΔT/ΔC=(median delta T/median delta C)×100. Individual tumor volume changes from baseline are thereafter analyzed by a non-parametric two-way ANOVA-TYPE (with factors: group and repeated days) followed by a post-hoc contrasts analysis, with Bonferroni-Holm adjustment for multiplicity, comparing all treated groups to the control group. […] A probability less than 5% (p<0.05) was considered as significant.
Based on the National Cancer Institute (NCl) standards, a ΔT/ΔC≦40% is the minimal level required to declare activity.
The tumor doubling time (in days; Td) was estimated from the plot of the log linear growth of the control group tumors in exponential growth (100 to 1000 mm^3 range) [T. H. Corbett et al., Cancer, 40: 2660-2680 (1977); F. M. Schabel et al., Cancer Drug Development, Part B, Methods in Cancer Research, 17: 3-51, New York, Academic Press Inc. (1979)].
This efficacy may also be quantified by the number of tumor regressions observed after therapy. Individual mice reporting a tumor volume ≦50% of the Day 0 measurement for two consecutive measurements over a seven day period were considered partial responders (PR). Individual mice lacking palpable tumors (<4×4 mm^2 for two consecutive measurements over a seven day period) were classified as complete responders (CR); a CR that persisted until study completion was considered a tumor-free survivor (TFS).
The efficacy of cabazitaxel in comparison with docetaxel on pediatric solid tumors was determined experimentally in the following manner:
The animals subjected to the experiment are subcutaneously grafted unilaterally with approximately 30 mg of a tumor fragment on day 0. The animals are implanted with a human tumor xenografted in immunocompromized mice. Several days post tumor implantation, mice are randomized according to their body weight to the different groups of treatments and controls. The animals are observed every day. The different animal groups are weighed daily during treatment until the maximum weight loss is reached and subsequent full weight recovery has occurred. The groups are then weighed once or twice a week until the end of the trial.
The tumors are measured 1 to 5 times a week, depending on the tumor doubling time, until the tumor reaches approximately 1,000 mm^3, or until the animal dies (if this occurs before the tumor reaches 1,000 mm^3). The animals are necropsied immediately after euthanasia or death.
The selected tumor model was a human Ewing's sarcoma SK-ES-1, xenografted in SCID mice [Fogh J. New York: Plenum Press, 1975].
Cabazitaxel and docetaxel were weighed for each treatment and dissolved in ethanol. Treatment solutions were prepared first by mixing 1 volume of ethanolic stock solution and 1 volume of polysorbate 80, then by adding 18 volumes of glucose 5% in water.
The Td in days was estimated from the plot of the log linear growth of the control group tumors in exponential growth (100 to 1,000 mm^3 range) and the number of tumor regressions observed after therapy.
The following end points have been used: • Toxicity was declared at dosages inducing ≧20% body weight loss or ≧10% drug death; • Relative tumor growth inhibition was determined on day 22 post tumor implantation when the median tumor size in the control group was 456 mm^3; • Antitumor efficacy was determined by calculating the ΔT/ΔC value in percent, according to the above-mentioned formula; • Tumor regressions (as explained above); • Statistical analysis performed (as explained above).

[1] = 3.5 mg/kg per injection (total 7.0) IV days 15; 19
[2] = 5.6 mg/kg per injection (total 11.2) IV days 15; 19
[3] = 5.6 mg/kg per injection (total 11.2) IV days 15; 19; listed as CABAZITAXEL
[4] = 9.0 mg/kg per injection (total 18) IV days 15; 19
[5] = 9.0 mg/kg per injection (total 18) IV days 15; 19; listed as CABAZITAXEL
[6] = 14.5 mg/kg per injection (total 29) IV days 15; 19
[7] = 14.5 mg/kg per injection (total 29) IV days 15; 19; listed as CABAZITAXEL

SMILES: CO[C@H]1C(=O)[C@]2(C)[C@@H](OC)C[C@H]3OC[C@@]3(OC(C)=O)[C@H]2[C@H](OC(=O)c2ccccc2)[C@]2(O)C[C@H](OC(=O)[C@H](O)[C@@H](NC(=O)OC(C)(C)C)c3ccccc3)C(C)=C1C2(C)C [Cabazitaxel, 4α-acetoxy-2α-benzoyloxy-5β,20-epoxy-1β-hydroxy-7β,10β-dimethoxy-9-oxo-11-taxen-13α-yl (2R,3S)-3-tert-butoxycarbonyl-amino-2-hydroxy-3-phenylpropionate]
- Average body weight change in % per mouse at nadir [1]: −4.4%
- Biological interpretation [1]: active
- Drug death [1]: 0/7
- Regressions Complete [1]: 0/7
- Regressions Partial [1]: 0/7
- Tumor free survivors at day 120 [1]: 0/7
- day of nadir [1]: 16 days
- ΔT/ΔC in % (day 22) [1]: 22%
- Biological interpretation (3.5 mg/kg per injection (total 7.0) IV days 15; 19; listed as CABAZITAXEL): Active
- Tumor volume changes from baseline: Median (nMad) (3.5 mg/kg, day 19): 32
- Tumor volume changes from baseline: Median (nMad) (3.5 mg/kg, day 22): 41
- Tumor volume changes from baseline: Median (nMad) (3.5 mg/kg, day 25): 180
- Tumor volume changes from baseline: Median (nMad) (3.5 mg/kg, day 28): 499
- Tumor volume changes from baseline: Median (nMad) (3.5 mg/kg; day 19): 32 (207.6)
- Tumor volume changes from baseline: Median (nMad) (3.5 mg/kg; day 22): 41 (108.2)
- Tumor volume changes from baseline: Median (nMad) (3.5 mg/kg; day 25): 180 (100.8)
- Tumor volume changes from baseline: Median (nMad) (3.5 mg/kg; day 28): 499 (324.7)
- Average body weight change in % per mouse at nadir [2]: −4.2%
- Biological interpretation [2]: highly active
- Drug death [2]: 0/7
- Regressions Complete [2]: 0/7
- Regressions Partial [2]: 7/7
- Tumor free survivors at day 120 [2]: 0/7
- day of nadir [2]: 16 days
- Biological interpretation [3]: Highly Active
- ΔT/ΔC in % (day 22) [3]: <0%
- PR (5.6 mg/kg per injection IV days 15; 19): 100%
- Tumor volume changes from baseline: Median (nMad) (5.6 mg/kg, day 19): −31
- Tumor volume changes from baseline: Median (nMad) (5.6 mg/kg, day 22): −126
- Tumor volume changes from baseline: Median (nMad) (5.6 mg/kg, day 25): −157
- Tumor volume changes from baseline: Median (nMad) (5.6 mg/kg, day 28): −157
- Tumor volume changes from baseline: Median (nMad) (5.6 mg/kg; day 19): −31 (87.5)
- Tumor volume changes from baseline: Median (nMad) (5.6 mg/kg; day 22): −126 (86)
- Tumor volume changes from baseline: Median (nMad) (5.6 mg/kg; day 25): −157 (81.5)
- Tumor volume changes from baseline: Median (nMad) (5.6 mg/kg; day 28): −157 (81.5)
- Tumor volume changes from baseline: Median (nMad) (5.6 mg/kg; day 32): −128 (112.7)
- Tumor volume changes from baseline: Median (nMad) (5.6 mg/kg; day 35): −157 (112.7)
- Average body weight change in % per mouse at nadir [4]: −6.3%
- Biological interpretation [4]: highly active
- Drug death [4]: 0/7
- Regressions Complete [4]: 0/7
- Regressions Partial [4]: 7/7
- Tumor free survivors at day 120 [4]: 0/7
- day of nadir [4]: 16 days
- Biological interpretation [5]: Highly Active
- ΔT/ΔC in % (day 22) [5]: <0%
- PR (9 mg/kg per injection IV days 15; 19): 100%
- Tumor volume changes from baseline: Median (nMad) (9 mg/kg, day 19): 25
- Tumor volume changes from baseline: Median (nMad) (9 mg/kg, day 22): −137
- Tumor volume changes from baseline: Median (nMad) (9 mg/kg, day 25): −227
- Tumor volume changes from baseline: Median (nMad) (9 mg/kg, day 28): −227
- Tumor volume changes from baseline: Median (nMad) (9 mg/kg; day 19): 25 (37.1)
- Tumor volume changes from baseline: Median (nMad) (9 mg/kg; day 22): −137 (60.8)
- Tumor volume changes from baseline: Median (nMad) (9 mg/kg; day 25): −227 (100.8)
- Tumor volume changes from baseline: Median (nMad) (9 mg/kg; day 28): −227 (100.8)
- Tumor volume changes from baseline: Median (nMad) (9 mg/kg; day 32): −231 (78.6)
- Tumor volume changes from baseline: Median (nMad) (9 mg/kg; day 35): −231 (78.6)
- Average body weight change in % per mouse at nadir [6]: −7.1%
- Biological interpretation [6]: highly active
- Drug death [6]: 0/7
- Regressions Complete [6]: 6/7
- Regressions Partial [6]: 7/7
- Tumor free survivors at day 120 [6]: 3/7
- day of nadir [6]: 20 days
- Biological interpretation [7]: Highly Active
- ΔT/ΔC in % (day 22) [7]: <0%
- Tumor volume changes from baseline: Median (nMad) (14.5 mg/kg, day 19): −108
- Tumor volume changes from baseline: Median (nMad) (14.5 mg/kg, day 22): −203
- Tumor volume changes from baseline: Median (nMad) (14.5 mg/kg, day 25): −221
- Tumor volume changes from baseline: Median (nMad) (14.5 mg/kg, day 28): −221
- Tumor volume changes from baseline: Median (nMad) (14.5 mg/kg; day 19): −108 (91.9)
- Tumor volume changes from baseline: Median (nMad) (14.5 mg/kg; day 22): −203 (87.5)
- Tumor volume changes from baseline: Median (nMad) (14.5 mg/kg; day 25): −221 (81.5)
- Tumor volume changes from baseline: Median (nMad) (14.5 mg/kg; day 28): −221 (81.5)
- Tumor volume changes from baseline: Median (nMad) (14.5 mg/kg; day 32): −221 (87.5)
- Tumor volume changes from baseline: Median (nMad) (14.5 mg/kg; day 35): −221 (87.5)
- Tumor volume changes from baseline: Median (nMad) (14.5 mg/kg; day 39): −221 (108.2)
- Tumor volume changes from baseline: Median (nMad) (14.5 mg/kg; day 41): −221 (140.8)
- Tumor volume changes from baseline: Median (nMad) (14.5 mg/kg; day 43): −221 (140.8)
- Tumor volume changes from baseline: Median (nMad) (14.5 mg/kg; day 45): −144 (222.4)
- antitumor activity compared with docetaxel (conclusion of example 3): more also active than docetaxel
